Measurements: patent publication US4370489A, “Herbicidal compounds” (Hoechst Aktiengesellschaft, priority 1976, dated 1983)

How the values were obtained:
wild oat [1] = assay: Field trial in wild oat, post-emergence treatment (Example VI, Table VI); assay type: in vivo; settings: for efficiency in % (counting of panicles) / evaluation 5 weeks after treatment: post-emergence
Protocol: In a field trial compound 1a of the invention was sprayed in the form of a 36% wettable powder formulation onto wild oat (single system, natural growth) after the plants had developed 3 or 4 leaves.
Three lots each were treated with different concentrations of the active compound and the comparative compound, the amount of spray liquor applied being 600 liters per hectare. Besides the usual visual evaluation at the end of the trial, the number of panicles per square meter was counted. In the untreated lots 400 to 500 panicles were counted per square meter, i.e. the field was heavily infected.
The relations are still more distinct when the amount of active compound required for a 90% effect is determined by the probit method (graphical evaluation) mentioned in Example II.

Digitaria [2] = assay: Post-emergence greenhouse pot trial, Digitaria (Example I, Table I); assay type: in vivo; settings: greenhouse pots, 4 weeks
Protocol: (§1) Seeds of weed grasses were sown in pots filled with loamy soil and placed in the greenhouse for germination and emergence. As soon as the plants had developed 3 or 4 leaves, they were sprayed with wettable powder formulations, suspended in water, of compounds according to the invention.
(§2) The results and also the results of all following examples were evaluated 4 weeks later according to the following scheme:
(§3) 4 is still considered an acceptable herbicidal effect in weeds and a satisfactory preserving effect in crop plants (cf. Bolle, Nachrichtenblatt des Deutschen Pflanzenschutzdienstes 16, 1964, pages 92-94).
(§4) Effect on weed grasses in a post-emergence trial in pots
(§5) in the greenhouse (Evaluation scheme)

weed grasses = assay: Pre-emergence greenhouse pot trial, weed grasses overall (Example V); assay type: in vivo; settings: in words
Protocol: as §2
(§6) In a greenhouse the compounds to be tested were sprayed on the surface of the soil directly after sowing. […] Dicotyledonous crop plants (the same as used in Example I) were not damaged by the applied amounts.
(§7) Effect on weed grasses in a pre-emergence process (evalua-
(§8) tion scheme) experiment in pots in the greenhouse.

Avena ludoviciana = assay: Post-emergence treatment, pots on a site without roof, Avena ludoviciana (Example IV, Table IV); assay type: in vivo; settings: for Effect (evaluation scheme), Avena ludoviciana: post-emergence, emulsion concentrate
Protocol: as §2
(§9) In summer a further experiment was carried through under similar conditions to compare the effect of compound 1a with that of comparative compound A. Both compounds were used in the form of an emulsion concentrate (Table IV).
(§10) Post-emergence treatment (evaluation scheme); experiment
(§11) in pots on a site without roof

spring wheat [3] = assay: Post-emergence treatment, pots on a site without roof, spring wheat (Example IV, Table IV); assay type: in vivo; settings: emulsion concentrate; also: ranges in brackets are in %
Protocol: as §2, §9, §10, §11

Setaria [4] = assay: Pre-emergence greenhouse pot trial, Setaria (Example V, Table V); assay type: in vivo
Protocol: as §2, §6, §7, §8

Lolium [5] = assay: Post-emergence greenhouse pot trial, Lolium (Example I, Table I); assay type: in vivo; settings: greenhouse pots, 4 weeks
Protocol: as §1, §2, §3, §4, §5

sugar beet = assay: Post emergence treatment in two stages, boxes on a site without roof, sugar beet (Table III); assay type: in vivo; settings: 0.9 kg/hectare
Protocol: as §2
(§12) Effect on wild oat and sugar beet
(§13) Post emergence treatment in two stages of development
(§14) boxes 20 × 24 × 22 cm in size on a site without roof

Avena fatua [6] = assay: Post emergence treatment in two stages, boxes on a site without roof, wild oat (Table III); assay type: in vivo; settings: 0.9 kg/hectare
Protocol: as §2, §12, §13, §14

wild oat [7] = assay: Post-emergence trial in the greenhouse, wild oat (Example VII, Table VII); assay type: in vivo; settings: 31 kg/hectare, emulsion concentrate, 4 weeks after treatment
Protocol: as §2
In a greenhouse some of the compounds of the invention were sprayed on plants of wild oat, the compounds being used as emulsion concentrates.
Post-emergence trial in the greenhouse
Effect on wild oat 4 weeks after treatment
Dose 31 kg/hectare of active compound (as emulsion

Setaria [8] = assay: Post-emergence greenhouse pot trial, Setaria (Example I, Table I); assay type: in vivo; settings: greenhouse pots, 4 weeks
Protocol: as §1, §2, §3, §4, §5

Lolium [9] = assay: Pre-emergence greenhouse pot trial, Lolium (Example V, Table V); assay type: in vivo
Protocol: as §2, §6, §7, §8

Avena fatua [10] = assay: Post-emergence treatment, pots on a site without roof, Avena fatua (Example IV, Table IV); assay type: in vivo; settings: for Effect (evaluation scheme), Avena fatua: post-emergence, emulsion concentrate
Protocol: as §2, §9, §10, §11

Alopecurus myos. = assay: Post-emergence treatment, pots on a site without roof, blackgrass (Example IV, Table IV); assay type: in vivo, annual black-grass (Alopecurus); settings: for Effect (evaluation scheme), Alopecurus myos.: post-emergence, emulsion concentrate
Protocol: as §2, §9, §10, §11

Avena fatua [11] = assay: Post-emergence trial in two stages, pots on a site without roof, wild oat (Example II, Table II); assay type: in vivo; settings: for 90% effective dose: probit method; for Effect on wild oat (evaluation), Avena fatua: post-emergence
Protocol: as §2
(§15) The amounts of active compound required for a 90% effect, determined by the probit method (cf. Bliss, Annals of Applied Biology, 22 1935), show very distincly the difference between the compound of the invention and the comparative compound. […] None of the compounds did any harm to the wheat.
(§16) Post-emergence treatment in two different stages of development
(§17) Experiments in pots on a site without roof
(§18) stage 1: 3 to 4 leaves with beginning growth of side
(§19) stage 2: main tillering to terminated tillering.

Echinochloa [12] = assay: Post-emergence greenhouse pot trial, Echinochloa (Example I, Table I); assay type: in vivo; settings: greenhouse pots, 4 weeks
Protocol: as §1, §2, §3, §4, §5

Echinochloa [13] = assay: Pre-emergence greenhouse pot trial, Echinochloa (Example V, Table V); assay type: in vivo
Protocol: as §2, §6, §7, §8

Alopecurus = assay: Post-emergence greenhouse pot trial, annual blackgrass (Example I, Table I); assay type: in vivo, annual blackgrass (Alopecurus); settings: greenhouse pots, 4 weeks
Protocol: as §1, §2, §3, §4, §5

spring barley = assay: Post-emergence treatment, pots on a site without roof, spring barley (Example IV, Table IV); assay type: in vivo; settings: emulsion concentrate; also: ranges in brackets are in %
Protocol: as §2, §9, §10, §11

Digitaria [14] = assay: Pre-emergence greenhouse pot trial, Digitaria (Example V, Table V); assay type: in vivo
Protocol: as §2, §6, §7, §8

spring wheat [15] = assay: Post-emergence trial in two stages, pots on a site without roof, spring wheat (Example II, Table II); assay type: in vivo
Protocol: as §2, §15, §16, §17, §18, §19

evaluation scheme, spring wheat (spring wheat [3]; 0.225 kg/hectare): 1 (0)
evaluation scheme, spring wheat (spring wheat [3]; 0.45 kg/hectare): 1 (0)
evaluation scheme, spring wheat (spring wheat [3]; 0.9 kg/hectare): 1 (0)
sugar beet number (sugar beet; 2-leaf stage): 2 (0 to 2.5)
sugar beet number (sugar beet; 4-leaf stage): 2 (0 to 2.5)
evaluation scheme, spring barley (spring barley; 0.225 kg/hectare): 1 (0)
evaluation scheme, spring barley (spring barley; 0.45 kg/hectare): 1 (0)
evaluation scheme, spring barley (spring barley; 0.9 kg/hectare): 1 (0)
evaluation, spring wheat (spring wheat [15]; stage 1, 0.112 kg/hectare): 1 (0)
evaluation, spring wheat (spring wheat [15]; stage 1, 0.225 kg/hectare): 1 (0)
evaluation, spring wheat (spring wheat [15]; stage 1, 0.45 kg/hectare): 1 (0)
evaluation, spring wheat (spring wheat [15]; stage 1, 0.9 kg/hectare): 2 (0 to 2.5)
evaluation, spring wheat (spring wheat [15]; stage 2, 0.112 kg/hectare): 1 (0)
evaluation, spring wheat (spring wheat [15]; stage 2, 0.225 kg/hectare): 1 (0)
evaluation, spring wheat (spring wheat [15]; stage 2, 0.45 kg/hectare): 1 (0)
evaluation, spring wheat (spring wheat [15]; stage 2, 0.9 kg/hectare): 2 (0 to 2.5)
Structure (SMILES): COC(=O)C(C)Oc1ccc(Oc2ccc(Br)cc2Cl)cc1 (stereo not drawn) [Compound 1a, Methyl-4-(2'-chloro-4'-bromophenoxy)-α-phenoxy-propionate]
efficiency in % (counting of panicles) (wild oat [1]; 0.54 kg/hectare): 79.0%
evaluation 5 weeks after treatment (wild oat [1]; 0.54 kg/hectare): 7 (65.0 to <75.0)
efficiency in % (counting of panicles) (wild oat [1]; 0.72 kg/hectare): 90.0%
evaluation 5 weeks after treatment (wild oat [1]; 0.72 kg/hectare): 5 (85.0 to <90.0)
efficiency in % (counting of panicles) (wild oat [1]; 0.90 kg/hectare): 97.4%
evaluation 5 weeks after treatment (wild oat [1]; 0.90 kg/hectare): 3 (95.0 to <.97.5)
amount sufficient compared with the comparative compound (90% effect) (wild oat [1]; probit method): about 1/4
amount of active compound required for a 90% effect (wild oat [1]; without wetting agent, probit method (graphical evaluation)): 0.68 kg/hectare
Effect on weed grasses (evaluation scheme number), Digitaria (Digitaria [2]; 0.15 kg/hectare): 6 (75.0 to <85.0)
Effect on weed grasses (evaluation scheme number), Digitaria (Digitaria [2]; 0.62 kg/hectare): 1 (100)
Effect on weed grasses (evaluation scheme number), Digitaria (Digitaria [2]; 2.5 kg/hectare): 1 (100)
effect in pre-emergence treatment compared with comparative compound A (weed grasses): better effect
Effect (evaluation scheme), Avena ludoviciana (Avena ludoviciana; 0.225 kg/hectare): 6 (75.0 to <85.0)
Effect (evaluation scheme), Avena ludoviciana (Avena ludoviciana; 0.45 kg/hectare): 5 (85.0 to <90.0)
Effect (evaluation scheme), Avena ludoviciana (Avena ludoviciana; 0.9 kg/hectare): 4 (90.0 to <95.0)
effect on Avena ludoviciana compared with comparative compound (Avena ludoviciana; in words): distinctly better effect than the comparative compound
Effect on weed grasses (evaluation scheme), Setaria (Setaria [4]; 0.62 kg/hectare): 6 (75.0 to <85.0)
Effect on weed grasses (evaluation scheme), Setaria (Setaria [4]; 1.25 kg/hectare): 4 (90.0 to <95.0)
Effect on weed grasses (evaluation scheme number), Lolium (Lolium [5]; 0.15 kg/hectare): 5 (85.0 to <90.0)
Effect on weed grasses (evaluation scheme number), Lolium (Lolium [5]; 0.62 kg/hectare): 3 (95.0 to <.97.5)
Effect on weed grasses (evaluation scheme number), Lolium (Lolium [5]; 2.5 kg/hectare): 2 (97.5 to <100)
Effect on wild oat, Avena fatua, number (Avena fatua [6]; 3-leaf stage): 1 (100)
degree of damage % (evaluation by weight), Avena fatua (Avena fatua [6]; 3-leaf stage): 100%
Effect on wild oat, Avena fatua, number (Avena fatua [6]; start of tillering): 3 to 4
degree of damage % (evaluation by weight), Avena fatua (Avena fatua [6]; start of tillering): 96%
effect (number) on wild oat (wild oat [7]): 1 (100)
Effect on weed grasses (evaluation scheme number), Setaria (Setaria [8]; 0.15 kg/hectare): 2 (97.5 to <100)
Effect on weed grasses (evaluation scheme number), Setaria (Setaria [8]; 0.62 kg/hectare): 1 (100)
Effect on weed grasses (evaluation scheme number), Setaria (Setaria [8]; 2.5 kg/hectare): 1 (100)
Effect on weed grasses (evaluation scheme), Lolium (Lolium [9]; 0.62 kg/hectare): 6 (75.0 to <85.0)
Effect on weed grasses (evaluation scheme), Lolium (Lolium [9]; 1.25 kg/hectare): 3 (95.0 to <.97.5)
Effect (evaluation scheme), Avena fatua (Avena fatua [10]; 0.225 kg/hectare): 7 (65.0 to <75.0)
Effect (evaluation scheme), Avena fatua (Avena fatua [10]; 0.45 kg/hectare): 6 (75.0 to <85.0)
Effect (evaluation scheme), Avena fatua (Avena fatua [10]; 0.9 kg/hectare): 5 (85.0 to <90.0)
effect on Avena fatua compared with comparative compound (Avena fatua [10]; in words): distinctly better effect than the comparative compound
Effect (evaluation scheme), Alopecurus myos. (Alopecurus myos.; 0.225 kg/hectare): 5 (85.0 to <90.0)
Effect (evaluation scheme), Alopecurus myos. (Alopecurus myos.; 0.45 kg/hectare): 3 (95.0 to <.97.5)
Effect (evaluation scheme), Alopecurus myos. (Alopecurus myos.; 0.9 kg/hectare): 1 (100)
response of annual black-grass (Alopecurus) (Alopecurus myos.; in words): responded very well
dosage sufficient with respect to the comparative compound (90% effect) (Avena fatua [11]; applied in the second stage): about half the dosage
effect on wild oat compared with compound A (Avena fatua [11]; emulsion concentrate of 36% strength, in words): better effect on wild oat than compound A
90% effective dose (Avena fatua [11]; stage 1 (3 to 4 leaves with beginning growth of side)): 0.34 kg per hectare
Effect on wild oat (evaluation), Avena fatua (Avena fatua [11]; stage 1, 0.112 kg/hectare): 6 (75.0 to <85.0)
Effect on wild oat (evaluation), Avena fatua (Avena fatua [11]; stage 1, 0.225 kg/hectare): 5 (85.0 to <90.0)
Effect on wild oat (evaluation), Avena fatua (Avena fatua [11]; stage 1, 0.45 kg/hectare): 4 (90.0 to <95.0)
Effect on wild oat (evaluation), Avena fatua (Avena fatua [11]; stage 1, 0.9 kg/hectare): 3 (95.0 to <.97.5)
90% effective dose (Avena fatua [11]; stage 2 (main tillering to terminated tillering)): 0.45 kg per hectare
Effect on wild oat (evaluation), Avena fatua (Avena fatua [11]; stage 2, 0.112 kg/hectare): 7 (65.0 to <75.0)
Effect on wild oat (evaluation), Avena fatua (Avena fatua [11]; stage 2, 0.225 kg/hectare): 6 (75.0 to <85.0)
Effect on wild oat (evaluation), Avena fatua (Avena fatua [11]; stage 2, 0.45 kg/hectare): 4 (90.0 to <95.0)
Effect on wild oat (evaluation), Avena fatua (Avena fatua [11]; stage 2, 0.9 kg/hectare): 3 (95.0 to <.97.5)
Effect on weed grasses (evaluation scheme number), Echinochloa (Echinochloa [12]; 0.15 kg/hectare): 2 (97.5 to <100)
Effect on weed grasses (evaluation scheme number), Echinochloa (Echinochloa [12]; 0.62 kg/hectare): 2 (97.5 to <100)
Effect on weed grasses (evaluation scheme number), Echinochloa (Echinochloa [12]; 2.5 kg/hectare): 1 (100)
Effect on weed grasses (evaluation scheme), Echinochloa (Echinochloa [13]; 0.62 kg/hectare): 3 (95.0 to <.97.5)
Effect on weed grasses (evaluation scheme), Echinochloa (Echinochloa [13]; 1.25 kg/hectare): 2 (97.5 to <100)
Effect on weed grasses (evaluation scheme number), Alopecurus (Alopecurus; 0.15 kg/hectare): 3 (95.0 to <.97.5)
Effect on weed grasses (evaluation scheme number), Alopecurus (Alopecurus; 0.62 kg/hectare): 1 (100)
Effect on weed grasses (evaluation scheme number), Alopecurus (Alopecurus; 2.5 kg/hectare): 1 (100)
Effect on weed grasses (evaluation scheme), Digitaria (Digitaria [14]; 0.62 kg/hectare): 4 (90.0 to <95.0)
Effect on weed grasses (evaluation scheme), Digitaria (Digitaria [14]; 1.25 kg/hectare): 2 (97.5 to <100)
